# Reference: ChEMBL document CHEMBL3739277, “Design, synthesis, and antibacterial evaluation of novel azolylthioether quinolones as MRSA DNA intercalators” (2015)
# Tested on: Saccharomyces cerevisiae
# Assay: Antifungal activity against Saccharomyces cerevisiae ATCC9763 assessed as growth inhibition incubated at 35 degC for 24 hrs by micro broth dilution method
# Assay type: functional
# Settings: ATCC9763, 24 h
row,SMILES,MIC80 [mg/L]
1,O=C(O)c1cn(C2CC2)c2cc(N3CCN(CC(O)CSc4ncn(Cc5ccc(Cl)cc5Cl)n4)CC3)c(F)cc2c1=O (centres undefined),64
2,O=C(O)c1cn(C2CC2)c2c(Cl)c(N3CCC(NCC(O)CSc4ncn(Cc5ccc(Cl)cc5Cl)n4)C3)c(F)cc2c1=O (centres undefined),64
3,CCn1cc(C(=O)O)c(=O)c2cc(F)c(N3CCN(CC(O)Cn4cnc(S)n4)CC3)cc21 (centres undefined),128

# Tested on: Cyberlindnera jadinii
# Assay: Antifungal activity against Candida utilis ATCC9950 assessed as growth inhibition incubated at 35 degC for 24 hrs by micro broth dilution method
# Assay type: functional
# Settings: Williopsis jadinii, ATCC9950, 24 h
row,SMILES,MIC80 [mg/L]
1,O=C(O)c1cn(C2CC2)c2cc(N3CCN(CC(O)CSc4ncn(Cc5ccc(Cl)cc5Cl)n4)CC3)c(F)cc2c1=O (centres undefined),4
2,O=C(O)c1cn(C2CC2)c2c(Cl)c(N3CCC(NCC(O)CSc4ncn(Cc5ccc(Cl)cc5Cl)n4)C3)c(F)cc2c1=O (centres undefined),16
3,CCn1cc(C(=O)O)c(=O)c2cc(F)c(N3CCN(CC(O)Cn4cnc(S)n4)CC3)cc21 (centres undefined),64

# Tested on: Candida albicans
# Assay: Antifungal activity against Candida albicans ATCC10231 assessed as growth inhibition incubated at 35 degC for 24 hrs by micro broth dilution method
# Assay type: functional
# Settings: ATCC10231, 24 h
row,SMILES,MIC80 [mg/L]
1,O=C(O)c1cn(C2CC2)c2cc(N3CCN(CC(O)CSc4ncn(Cc5ccc(Cl)cc5Cl)n4)CC3)c(F)cc2c1=O (centres undefined),32
2,O=C(O)c1cn(C2CC2)c2c(Cl)c(N3CCC(NCC(O)CSc4ncn(Cc5ccc(Cl)cc5Cl)n4)C3)c(F)cc2c1=O (centres undefined),16
3,CCn1cc(C(=O)O)c(=O)c2cc(F)c(N3CCN(CC(O)Cn4cnc(S)n4)CC3)cc21 (centres undefined),128

# Tested on: not listed separately
# Assay: Antibacterial activity against Eberthella typhosa ATCC14028 assessed as growth inhibition incubated at 37 degC for 24 hrs by micro broth dilution method
# Assay type: functional
# Settings: ATCC14028, 24 h
row,SMILES,MIC [mg/L]
1,O=C(O)c1cn(C2CC2)c2cc(N3CCN(CC(O)CSc4ncn(Cc5ccc(Cl)cc5Cl)n4)CC3)c(F)cc2c1=O (centres undefined),1
2,O=C(O)c1cn(C2CC2)c2c(Cl)c(N3CCC(NCC(O)CSc4ncn(Cc5ccc(Cl)cc5Cl)n4)C3)c(F)cc2c1=O (centres undefined),1
3,CCn1cc(C(=O)O)c(=O)c2cc(F)c(N3CCN(CC(O)Cn4cnc(S)n4)CC3)cc21 (centres undefined),64

# Tested on: not listed separately
# Assay: Antifungal activity against Candida mycoderma ATCC9888 assessed as growth inhibition incubated at 35 degC for 24 hrs by micro broth dilution method
# Assay type: functional
# Settings: Kregervanrija fluxuum
row,SMILES,MIC80 [mg/L]
1,O=C(O)c1cn(C2CC2)c2cc(N3CCN(CC(O)CSc4ncn(Cc5ccc(Cl)cc5Cl)n4)CC3)c(F)cc2c1=O (centres undefined),16
2,O=C(O)c1cn(C2CC2)c2c(Cl)c(N3CCC(NCC(O)CSc4ncn(Cc5ccc(Cl)cc5Cl)n4)C3)c(F)cc2c1=O (centres undefined),4
3,CCn1cc(C(=O)O)c(=O)c2cc(F)c(N3CCN(CC(O)Cn4cnc(S)n4)CC3)cc21 (centres undefined),128

# Tested on: Aspergillus flavus
# Assay: Antifungal activity against Aspergillus flavus ATCC204304 assessed as growth inhibition incubated at 35 degC for 24 hrs by micro broth dilution method
# Assay type: functional
# Settings: ATCC204304, 24 h
row,SMILES,MIC80 [mg/L]
1,O=C(O)c1cn(C2CC2)c2cc(N3CCN(CC(O)CSc4ncn(Cc5ccc(Cl)cc5Cl)n4)CC3)c(F)cc2c1=O (centres undefined),16
2,O=C(O)c1cn(C2CC2)c2c(Cl)c(N3CCC(NCC(O)CSc4ncn(Cc5ccc(Cl)cc5Cl)n4)C3)c(F)cc2c1=O (centres undefined),64
3,CCn1cc(C(=O)O)c(=O)c2cc(F)c(N3CCN(CC(O)Cn4cnc(S)n4)CC3)cc21 (centres undefined),512

# Tested on: Escherichia coli
# Assay: Antibacterial activity against Escherichia coli JM109 assessed as growth inhibition incubated at 37 degC for 24 hrs by micro broth dilution method
# Assay type: functional
# Settings: JM109, 24 h
row,SMILES,MIC [mg/L]
1,O=C(O)c1cn(C2CC2)c2cc(N3CCN(CC(O)CSc4ncn(Cc5ccc(Cl)cc5Cl)n4)CC3)c(F)cc2c1=O (centres undefined),2
2,O=C(O)c1cn(C2CC2)c2c(Cl)c(N3CCC(NCC(O)CSc4ncn(Cc5ccc(Cl)cc5Cl)n4)C3)c(F)cc2c1=O (centres undefined),1
3,CCn1cc(C(=O)O)c(=O)c2cc(F)c(N3CCN(CC(O)Cn4cnc(S)n4)CC3)cc21 (centres undefined),64

# Tested on: Staphylococcus aureus
# Assay: Antibacterial activity against methicillin resistant Staphylococcus aureus N315 assessed as growth inhibition incubated at 37 degC for 24 hrs by micro broth dilution method
# Assay type: functional
# Settings: N315, 24 h
row,SMILES,MIC [mg/L]
1,O=C(O)c1cn(C2CC2)c2cc(N3CCN(CC(O)CSc4ncn(Cc5ccc(Cl)cc5Cl)n4)CC3)c(F)cc2c1=O (centres undefined),1
2,O=C(O)c1cn(C2CC2)c2c(Cl)c(N3CCC(NCC(O)CSc4ncn(Cc5ccc(Cl)cc5Cl)n4)C3)c(F)cc2c1=O (centres undefined),8
3,CCn1cc(C(=O)O)c(=O)c2cc(F)c(N3CCN(CC(O)Cn4cnc(S)n4)CC3)cc21 (centres undefined),64

# Tested on: Staphylococcus aureus
# Assay: Antibacterial activity against Staphylococcus aureus ATCC25923 assessed as growth inhibition incubated at 37 degC for 24 hrs by micro broth dilution method
# Assay type: functional
# Settings: ATCC25923, 24 h
row,SMILES,MIC [mg/L]
1,O=C(O)c1cn(C2CC2)c2cc(N3CCN(CC(O)CSc4ncn(Cc5ccc(Cl)cc5Cl)n4)CC3)c(F)cc2c1=O (centres undefined),1
2,O=C(O)c1cn(C2CC2)c2c(Cl)c(N3CCC(NCC(O)CSc4ncn(Cc5ccc(Cl)cc5Cl)n4)C3)c(F)cc2c1=O (centres undefined),2
3,CCn1cc(C(=O)O)c(=O)c2cc(F)c(N3CCN(CC(O)Cn4cnc(S)n4)CC3)cc21 (centres undefined),128

# Tested on: Micrococcus luteus
# Assay: Antibacterial activity against Micrococcus luteus ATCC4698 assessed as growth inhibition incubated at 37 degC for 24 hrs by micro broth dilution method
# Assay type: functional
# Settings: ATCC4698, 24 h
row,SMILES,MIC [mg/L]
1,O=C(O)c1cn(C2CC2)c2cc(N3CCN(CC(O)CSc4ncn(Cc5ccc(Cl)cc5Cl)n4)CC3)c(F)cc2c1=O (centres undefined),2
2,O=C(O)c1cn(C2CC2)c2c(Cl)c(N3CCC(NCC(O)CSc4ncn(Cc5ccc(Cl)cc5Cl)n4)C3)c(F)cc2c1=O (centres undefined),4
3,CCn1cc(C(=O)O)c(=O)c2cc(F)c(N3CCN(CC(O)Cn4cnc(S)n4)CC3)cc21 (centres undefined),64

# Tested on: Bacillus subtilis
# Assay: Antibacterial activity against Bacillus subtilis ATCC6633 assessed as growth inhibition incubated at 37 degC for 24 hrs by micro broth dilution method
# Assay type: functional
# Settings: ATCC6633, 24 h
row,SMILES,MIC [mg/L]
1,O=C(O)c1cn(C2CC2)c2cc(N3CCN(CC(O)CSc4ncn(Cc5ccc(Cl)cc5Cl)n4)CC3)c(F)cc2c1=O (centres undefined),2
2,O=C(O)c1cn(C2CC2)c2c(Cl)c(N3CCC(NCC(O)CSc4ncn(Cc5ccc(Cl)cc5Cl)n4)C3)c(F)cc2c1=O (centres undefined),0.5
3,CCn1cc(C(=O)O)c(=O)c2cc(F)c(N3CCN(CC(O)Cn4cnc(S)n4)CC3)cc21 (centres undefined),128

# Tested on: Pseudomonas aeruginosa
# Assay: Antibacterial activity against Pseudomonas aeruginosa ATCC27853 assessed as growth inhibition incubated at 37 degC for 24 hrs by micro broth dilution method
# Assay type: functional
# Settings: ATCC27853, 24 h
row,SMILES,MIC [mg/L]
1,O=C(O)c1cn(C2CC2)c2cc(N3CCN(CC(O)CSc4ncn(Cc5ccc(Cl)cc5Cl)n4)CC3)c(F)cc2c1=O (centres undefined),4
2,O=C(O)c1cn(C2CC2)c2c(Cl)c(N3CCC(NCC(O)CSc4ncn(Cc5ccc(Cl)cc5Cl)n4)C3)c(F)cc2c1=O (centres undefined),1
3,CCn1cc(C(=O)O)c(=O)c2cc(F)c(N3CCN(CC(O)Cn4cnc(S)n4)CC3)cc21 (centres undefined),64

# Tested on: not listed separately
# Assay: Antibacterial activity against Bacillus proteus ATCC13315 assessed as growth inhibition incubated at 37 degC for 24 hrs by micro broth dilution method
# Assay type: functional
# Settings: ATCC13315, 24 h
row,SMILES,MIC [mg/L]
1,O=C(O)c1cn(C2CC2)c2cc(N3CCN(CC(O)CSc4ncn(Cc5ccc(Cl)cc5Cl)n4)CC3)c(F)cc2c1=O (centres undefined),2
2,O=C(O)c1cn(C2CC2)c2c(Cl)c(N3CCC(NCC(O)CSc4ncn(Cc5ccc(Cl)cc5Cl)n4)C3)c(F)cc2c1=O (centres undefined),0.5
3,CCn1cc(C(=O)O)c(=O)c2cc(F)c(N3CCN(CC(O)Cn4cnc(S)n4)CC3)cc21 (centres undefined),128
